From ChEMBL document CHEMBL4616659, “Talarolactone A, an Isocoumarin Derivative Fused with Dihydrothiophene with Selective Antimigratory Activity from the Endolichenic Fungus Talaromyces sp” (J Nat Prod, 2020) come the findings set out here.

Activity calls are given as the source filed them. The rule behind the calls is not given here.

The subject of data set [1] is Staphylococcus aureus. The data set is described as follows: Antibacterial activity against Staphylococcus aureus ATCC 29213 up to 100 ug/ml incubated for 20 hrs by microbroth dilution method. The class given is functional, organism-based.
The next data set relates to Enterobacter cloacae. Put plainly: Antibacterial activity against Enterobacter cloacae ATCC 13047 up to 100 ug/ml incubated for 20 hrs by microbroth dilution method. Format: functional, organism-based. On the technique in general: Dilution methods test growth across graded concentrations, often in twofold steps.
Data set [2] is described as follows: Cytotoxicity against human THLE cells at 6.25 to 50 ug/ml incubated for 24 hrs by MTT assay. The class given is cell-based. For orientation: Tetrazolium dyes change colour on reduction, which living cells bring about.
The next data set has as its system MDA-MB-231. The data set is described as follows: Cytotoxicity against human MDA-MB-231 cells at 6.25 to 50 ug/ml incubated for 24 hrs by MTT assay. Format: functional, cell-based.
The subject of another data set is Acinetobacter baumannii. The data set is described as follows: Antibacterial activity against Acinetobacter baumannii ATCC 19004 up to 100 ug/ml incubated for 20 hrs by microbroth dilution method. Format: functional, organism-based.
The test system of another data set is MCF7. Put plainly: Cytotoxicity against human MCF7 cells at 6.25 to 50 ug/ml incubated for 24 hrs by MTT assay. Format: functional, cell-based.
Data set [3] relates to Staphylococcus aureus. The data set is described as follows: Antibacterial activity against Methicillin-resistant Staphylococcus aureus up to 100 ug/ml incubated for 20 hrs by microbroth dilution method. Format: functional, organism-based.
A short description of data set [4]: Toxicity in zebrafish AB embryo up to 100 ug/ml after 24 to 88 hrs by inverted microscope. Details: species or system Danio rerio. To be noted: in vivo.
In data set [5] the test system is HepG2. The data set is described as follows: Antimigratory activity against human HepG2 cells at 25 ug/ml measured up to 60 hrs by microscopic based wound healing assay. Format: functional, cell-based.
A further data set relates to Salmonella typhimurium. Put plainly: Antibacterial activity against Salmonella typhimurium ATCC 14028 up to 100 ug/ml incubated for 20 hrs by microbroth dilution method. Format: functional, organism-based. The conditions noted are these: Salmonella enterica subsp. enterica serovar Typhimurium.
The test system of data set [6] is Klebsiella pneumoniae. The data set is described as follows: Antibacterial activity against Klebsiella pneumoniae harboring NDM1 mutant up to 100 ug/ml incubated for 20 hrs by microbroth dilution method. Format: functional, organism-based.
Data set [7] concerns Klebsiella pneumoniae. Put plainly: Antibacterial activity against Klebsiella pneumoniae ATCC 43816 up to 100 ug/ml incubated for 20 hrs by microbroth dilution method. The class given is functional, organism-based.
The next data set has as its system Escherichia coli. Put plainly: Antibacterial activity against Escherichia coli ATCC 25922 up to 100 ug/ml incubated for 20 hrs by microbroth dilution method. The class given is functional, organism-based.
The nature of data set [8]: Cytotoxicity against human HBE cells at 6.25 to 50 ug/ml incubated for 24 hrs by MTT assay. Format: cell-based.
In data set [9] the test system is HepG2. The data set is described as follows: Cytotoxicity against human HepG2 cells at 6.25 to 50 ug/ml incubated for 24 hrs by MTT assay. The class given is functional, cell-based.
The test system of the next data set is A549. The data set is described as follows: Cytotoxicity against human A549 cells at 6.25 to 50 ug/ml incubated for 24 hrs by MTT assay. Format: functional, cell-based.

Consider `COc1cc(C(=O)O)c2c3c1C(=O)O[C@@H](C)[C@@H]3CS2`, for which the result with Staphylococcus aureus [1], with Enterobacter cloacae, in the data set on MDA-MB-231, with Acinetobacter baumannii, with MCF7 and in the data set with Staphylococcus aureus [3] was inactive. Besides, the result in the data set on Salmonella typhimurium, in the data set on Klebsiella pneumoniae [6], with Klebsiella pneumoniae [7], in the data set on Escherichia coli, in the data set on HepG2 [9] and in the data set on A549 was inactive. The Activity entry in [2], in data set [4] and in data set [8] was “Non-Toxic” in each case. The outcome in the data set on HepG2 [5] was Active.
